The record followed here is patent publication US20130172311A1, “Substituted heterocyclyl benzyl pyrazoles, and use thereof” (BAYER INTELLECTUAL PROPERTY GMBH, priority 2010, published 2013).

The nature of data set [1]: Pharmacokinetic parameters after peroral administration in rats. Type of data set: in vivo. The note with it: 1-3 mg/kg, solution in Solutol/ethanol/water. Here is the method:
(§1) The substance to be examined was administered to animals (for example mice or rats) intravenously as a solution (for example in corresponding plasma with a small addition of DMSO or in a PEG/ethanol/water mixture), and peroral administration was effected as a solution (for example in Solutol/ethanol/water or PEG/ethanol/water mixtures) or as a suspension (e.g. in tylose), in each case via a gavage. After administration of the substance, blood was taken from the animals at fixed times. The blood was heparinized, then plasma was obtained therefrom by centrifugation. The substance was quantified analytically in the plasma via LC-MS/MS. From the plasma concentration/time plots determined in this way, using an internal standard and with the aid of a validated computer program, the pharmacokinetic parameters, such as AUC (area under the concentration/time curve), Cmax, (maximum plasma concentration), t1/2 (half life), VSS (distribution volume) and CL (clearance), and the absolute and relative bioavailability F and Frei (i.v./p.o. comparison or comparison of suspension to solution after p.o. administration), were calculated.
To determine the active ingredient release from a prodrug compound, the prodrug was administered either intravenously or perorally, as described above, and the concentrations both of the prodrug and of the active ingredient released were quantified in the processed plasma.
The substance to be examined was administered perorally to rats, in each case in amounts between 1 and 3 mg/kg as a solution in Solutol/ethanol/water (40:10:50 or 40:20:40). The kinetic parameters determined for Working Example 1 are shown below by way of example for the inventive compounds [AUCnorm=dose-normalized exposure (area under the concentration/time curve)]:
The second row in this table gives the pharmacokinetic parameters for Example 1, as obtained after peroral administration of the prodrug compound from Example 15 (1 mg/kg of crystalline substance as a tylose suspension in water).

The test system of data set [2] is luciferase reporter under the control of an HIF-responsive sequence in HCT 116 cells. The data set can be described thus: HIF luciferase assay. The note with it: Homo sapiens; HCT 116 reporter cells, hypoxia chamber (1% O2), 24 h; comparison compound. Format: cell-based. On the procedure: HCT 116 cells were stably transfected with a plasmid which contained a luciferase reporter under the control of an HIF-responsive sequence. These cells were sown in microtitre plates [20 000 cells/cavity in RPMI 1640 medium with 10% foetal calf serum (FCS) and 100 μg/ml of hygromycin]. They were incubated overnight under standard conditions (5% CO2, 21% O2, 37° C., moistened). The following morning the cells were incubated with different concentrations of the test substances (0-10 μmol/l) in a hypoxia chamber (1% O2). After 24 h, Bright Glo reagent (Promega, Wis., USA) was added in accordance with the manufacturer's instructions, and after 5 min the luminescence was measured. Cells which were incubated under normoxia served as background controls.

Data set [3] can be described thus: Pharmacokinetic parameters after intravenous administration in rats. Format: in vivo. To be noted: rat, plasma, i.v., comparison compound, read-out: CLplasma (plasma clearance) (converted). Here is the method: as §1
The substance to be examined was administered intravenously to rats, in each case in amounts between 0.3 and 1.0 mg/kg as a solution in plasma which contained up to 2% DMSO.

Consider `Cc1ccc(Cn2nc(-c3nc(-c4ccc(OC(F)(F)F)cc4)no3)cc2C)cc1` [Example 1 in WO 2008/141731-A2, 5-[5-methyl-1-(4-methylbenzyl)-1H-pyrazol-3-yl]-3-[4-(trifluoromethoxy)phenyl]-1,2,4-oxadiazole, reference compound], for which the “AUCnorm (dose-normalized exposure)” value in data set [1] (p.o.) came to 1.9 kg·h/L. Moreover, the bioavailability (commonly dose-corrected exposure relative to a reference, in per cent) in data set [1] (rat, plasma, po, read-out: F (bioavailability)) amounted to 74%. In addition, inhibition in data set [2] was half-maximal at 30 nM (IC50). Also, the clearance – broadly, the volume of plasma or blood freed of the substance per unit of time – in data set [3] is 6.67 mL/min/kg.
